Laboratory results as given in US7705013B2, “Use of canthin-6-one, plant extracts containing same and derivatives thereof in the treatment of trypanosomiases” (Institut de Recherche pour le Developpement, priority 2002, dated 2010).

Experiments:
Trypanosoma cruzi [1] = assay: In vivo trial on Trypanosoma cruzi in the acute phase, Balb/c mice: parasitological evaluation (parasites in peripheral blood)
From the text: (§1) Animals and parasites: The Balb/c-type mice are bred in the animal house of the Health Sciences Research Institute (IICS, Asuncion, Paraguay) and are 6 to 8 weeks old at the time of the experimental protocols.
(§2) For these trials, the CL strain (Brener clone) of T. cruzi is used in the circulating form of the parasite (trypomastigotes). The animals are infected intraperitoneally with 5000 parasites; this strain produces its parasite peak 21 to 25 days after infection. Each week, the number of parasites is verified by means of a blood sample taken from the tail of the mouse.
(§3) Infection and treatment: The treatments with benznidazole, the reference medicinal product, and canthin-6-one begin 11 days after parasitic infection, at a rate of 50 mg/kg or 200 mM/kg for benznidazole and at the concentration of 5 mg/kg or 20 mM/kg for canthin-6-one. The duration of the treatments is fixed at two weeks and the chosen route of administration is oral for benznidazole and canthin-6-one; furthermore, a group of mice is treated with canthin-6-one administered subcutaneously. The untreated and infected mice are given 100 μl of a phosphate buffered saline solution.
(§4) • weekly counting of the number of parasites circulating in the peripheral blood throughout the experiment, i.e. 10 weeks; • observation of mortality; • two serological evaluations: 40 days post-infection, i.e. 15 days after treatment has been stopped, and 68 days post-infection, i.e. 45 days post-treatment. The serological evaluation is carried out by means of a Chagas ELISA assay (enzyme linked immunoassay) kit, IISC, Asuncion. The optical densities are measured with an ELISA plate reader (Titerek, Unistan, I).
(§5) Statistical studies: The mean and the standard deviations of each group are calculated, the differences between the groups are determined by means of the Student's test and the Kruskal-Wallis non-parametric analysis of variance test. The comparisons are carried out between the nontreated group and the treated groups, P<0.05.

Trypanosoma cruzi [2] = assay: In vivo trial on Trypanosoma cruzi in the acute phase, Balb/c mice: serological evaluation (anti-T. cruzi ELISA); conditions: for 1st serology (anti-T. cruzi ELISA, optical density): 40 days post-infection, 15 days post-treatment; for 2nd serology (anti-T. cruzi ELISA, optical density): 68 days post-infection, 45 days post-treatment
From the text: as §1, §2, §3, §4, §5

Trypanosoma cruzi [3] = assay: In vivo trial on Trypanosoma cruzi in the chronic phase, Balb/c mice: parasitemia and mortality
From the text: (§6) The Balb/c-type mice are bred in the animal house of the Health Sciences Research Institute (IICS, Asuncion, Paraguay) and are 6 to 8 weeks old at the time of the experimental protocols. For this experimental protocol, the CL strain (Brener clone) of T. cruzi is used in the circulating form (trypomastigotes), and the strain is maintained in routine culture on an animal model by passage every 14 days. The animals are infected intraperitoneally with 1000 parasites. Under these experimental conditions, the parasites develop slowly; this strain produces a parasite peak 21 to 28 days after infection. The majority of the mice survive (70-80%) with slight deterioration of their general physical condition and with absent or subpatent parasitemia. Each week, the number of parasites is verified by taking a blood sample from the tail of the mouse.
[…] The mice are then divided up into groups randomly. The treatments with benznidazole, the reference medicinal product, are administered at a concentration of 50 mg/kg or 200 mM/kg per day for 20 days, orally. Canthin-6-one is administered either orally or subcutaneously at a concentration of 5 mg/kg or 20 mM/kg per day for 20 days. A total dichloromethane extract of Zanthoxylum chiloperone var. angustifolium trunk bark is administered orally or subcutaneously at a concentration of 50 mg/kg per day for 20 days. For administration, the active principles are dissolved in 50 μl of a phosphate buffered saline (PBS) solution. The untreated and infected mice receive 50 μl of PBS.
• Weekly counting of the number of parasites circulating in the peripheral blood throughout the experiment, i.e. 30 weeks. • Observation of mortality. • Three serological evaluations, 45 days before the beginning of treatments, 10 days after treatment has stopped and 75 days post-treatment. The serological evaluation is carried out using a Chagas ELISA assay (enzyme linked immunoassay) kit, IISC, Asuncion. The optical densities are measured with an ELISA plate reader (Titerek, Unistan, I). Statistical Studies:
as §5, with “The” for “Statistical studies: The”, “calculated, and” for “calculated,”, “untreated” for “nontreated”

Trypanosoma cruzi [4] = assay: In vivo trial on Trypanosoma cruzi in the chronic phase, Balb/c mice: serological evaluation (ELISA)
From the text: as §6
For this long-duration experiment, the treatments begin 120 days after parasitic infection, when the parasitemia is subpatent in all the mice. The mice are then divided up into groups randomly. The treatments with benznidazole, the reference medicinal product, are administered at a concentration of 50 mg/kg or 200 mM/kg per day for 20 days, orally. Canthin-6-one is administered either orally or subcutaneously at a concentration of 5 mg/kg or 20 mM/kg per day for 20 days. A total dichloromethane extract of Zanthoxylum chiloperone var. angustifolium trunk bark is administered orally or subcutaneously at a concentration of 50 mg/kg per day for 20 days. For administration, the active principles are dissolved in 50 μl of a phosphate buffered saline (PBS) solution. The untreated and infected mice receive 50 μl of PBS.
• Weekly counting of the number of parasites circulating in the peripheral blood throughout the experiment, i.e. […] The serological evaluation is carried out using a Chagas ELISA assay (enzyme linked immunoassay) kit, IISC, Asuncion. The optical densities are measured with an ELISA plate reader (Titerek, Unistan, I). Statistical Studies:
as §5, with “The” for “Statistical studies: The”, “calculated, and” for “calculated,”, “untreated” for “nontreated”

O=C(Cn1ccnc1[N+](=O)[O-])NCc1ccccc1 [Benznidazole, benznidazole, reference compound]
eradication of Trypanosoma cruzi from the infected organism, acute phase (Trypanosoma cruzi [1]; 50 mg/kg/d): does not make it possible to obtain | number of parasites ± standard deviation (Trypanosoma cruzi [1]; day 4 post-infection (before treatment), 50 mg/kg oral, two weeks from day 11, n = 8): 0 | number of parasites ± standard deviation (Trypanosoma cruzi [1]; day 11 post-infection (period of treatment), 50 mg/kg oral, n = 8): 0 | number of parasites ± standard deviation (Trypanosoma cruzi [1]; day 18 post-infection (period of treatment), 50 mg/kg oral, n = 8): 34.9 ± 98.6 | number of parasites ± standard deviation (Trypanosoma cruzi [1]; day 25 post-infection (period of treatment), 50 mg/kg oral, n = 8): 250.1 ± 503.5 | number of parasites ± standard deviation (Trypanosoma cruzi [1]; day 32 post-infection, 50 mg/kg oral, two weeks from day 11, n = 8): 296.8 ± 625.5 | number of parasites ± standard deviation (Trypanosoma cruzi [1]; day 39 post-infection, 50 mg/kg oral, two weeks from day 11, n = 8): 118.3 ± 192.9 | number of parasites ± standard deviation (Trypanosoma cruzi [1]; day 45 post-infection, 50 mg/kg oral, two weeks from day 11, n = 8): 300.8 ± 431.6 | number of parasites ± standard deviation (Trypanosoma cruzi [1]; day 53 post-infection, 50 mg/kg oral, two weeks from day 11, n = 8): 23.3 ± 65.8 | number of parasites ± standard deviation (Trypanosoma cruzi [1]; day 60 post-infection, 50 mg/kg oral, two weeks from day 11, n = 8): 65.3 ± 93.2 | number of parasites ± standard deviation (Trypanosoma cruzi [1]; day 68 post-infection, 50 mg/kg oral, two weeks from day 11, n = 8): 9.4 ± 26.5 | 1st serology (anti-T. cruzi ELISA, optical density) (Trypanosoma cruzi [2]; 50 mg oral): 0.1692 ± 0.1179 | 2nd serology (anti-T. cruzi ELISA, optical density) (Trypanosoma cruzi [2]; 50 mg oral): 0.7934 ± 0.8607 | Negative parasitemia/number of surviving mice (Trypanosoma cruzi [3]; 0 days post-treatment, 50 mg/kg/d orally for 20 days): 5/5 | Negative parasitemia/number of surviving mice (Trypanosoma cruzi [3]; 10 d post-treatment, 50 mg/kg/d orally for 20 days): 2/5 | Negative parasitemia/number of surviving mice (Trypanosoma cruzi [3]; 40 d post-treatment, 50 mg/kg/d orally for 20 days): 5/5 | Negative parasitemia/number of surviving mice (Trypanosoma cruzi [3]; 60 d post-treatment, 50 mg/kg/d orally for 20 days): 5/5 | ELISA (optical density ± standard deviation) (Trypanosoma cruzi [4]; 10 d post-treatment, 50 mg/kg/d orally): 1.712 ± 0.473 | ELISA (optical density ± standard deviation) (Trypanosoma cruzi [4]; 43 days before treatment (baseline), 50 mg/kg/d orally): 2.072 ± 0.220 | ELISA (optical density ± standard deviation) (Trypanosoma cruzi [4]; 75 d post-treatment, 50 mg/kg/d orally): 1.979 ± 0.350

O=c1ccc2nccc3c4ccccc4n1c23 [canthin-6-one]
effective dose against Trypanosoma cruzi relative to benznidazole (Trypanosoma cruzi [1]; activity assays, general statement): doses ten times lower than the doses at which benznidazole is effective | number of parasites ± standard deviation (Trypanosoma cruzi [1]; day 4 post-infection (before treatment), 5 mg/kg oral, two weeks from day 11, n = 7): 0 | number of parasites ± standard deviation (Trypanosoma cruzi [1]; day 4 post-infection (before treatment), 5 mg/kg subcutaneous, two weeks from day 11, n = 8): 0 | number of parasites ± standard deviation (Trypanosoma cruzi [1]; day 11 post-infection (period of treatment), 5 mg/kg oral, n = 7): 0 | number of parasites ± standard deviation (Trypanosoma cruzi [1]; day 11 post-infection (period of treatment), 5 mg/kg subcutaneous, n = 8): 0 | number of parasites ± standard deviation (Trypanosoma cruzi [1]; day 18 post-infection (period of treatment), 5 mg/kg oral, n = 7): 285 ± 515.9 | number of parasites ± standard deviation (Trypanosoma cruzi [1]; day 18 post-infection (period of treatment), 5 mg/kg subcutaneous, n = 8): 766.3 ± 719.2 | number of parasites ± standard deviation (Trypanosoma cruzi [1]; day 25 post-infection (period of treatment), 5 mg/kg oral, n = 7): 402 ± 837.7 | number of parasites ± standard deviation (Trypanosoma cruzi [1]; day 25 post-infection (period of treatment), 5 mg/kg subcutaneous, n = 8): 88.4 ± 142.9 | number of parasites ± standard deviation (Trypanosoma cruzi [1]; day 32 post-infection, 5 mg/kg oral, two weeks from day 11, n = 7): 426.2 ± 664.5 | number of parasites ± standard deviation (Trypanosoma cruzi [1]; day 32 post-infection, 5 mg/kg subcutaneous, two weeks from day 11, n = 8): 267.5 ± 546.5 | number of parasites ± standard deviation (Trypanosoma cruzi [1]; day 39 post-infection, 5 mg/kg oral, two weeks from day 11, n = 7): 36.6 ± 58.4 | number of parasites ± standard deviation (Trypanosoma cruzi [1]; day 39 post-infection, 5 mg/kg subcutaneous, two weeks from day 11, n = 8): 2077.1 ± 2214.2 | number of parasites ± standard deviation (Trypanosoma cruzi [1]; day 45 post-infection, 5 mg/kg oral, two weeks from day 11, n = 7): 34.4 ± 76.9 | number of parasites ± standard deviation (Trypanosoma cruzi [1]; day 45 post-infection, 5 mg/kg subcutaneous, two weeks from day 11, n = 8): 314.1 ± 499.3 | number of parasites ± standard deviation (Trypanosoma cruzi [1]; day 53 post-infection, 5 mg/kg oral, two weeks from day 11, n = 7): 58.4 ± 80.6 | number of parasites ± standard deviation (Trypanosoma cruzi [1]; day 53 post-infection, 5 mg/kg subcutaneous, two weeks from day 11, n = 8): 473.4 ± 921.9 | number of parasites ± standard deviation (Trypanosoma cruzi [1]; day 60 post-infection, 5 mg/kg oral, two weeks from day 11, n = 7): 16 ± 35.8 | number of parasites ± standard deviation (Trypanosoma cruzi [1]; day 60 post-infection, 5 mg/kg subcutaneous, two weeks from day 11, n = 8): 129.9 ± 194.4 | number of parasites ± standard deviation (Trypanosoma cruzi [1]; day 68 post-infection, 5 mg/kg oral, two weeks from day 11, n = 7): 0 | number of parasites ± standard deviation (Trypanosoma cruzi [1]; day 68 post-infection, 5 mg/kg subcutaneous, two weeks from day 11, n = 8): 34.9 ± 98.6 | eradication of Trypanosoma cruzi from the infected organism, acute phase (Trypanosoma cruzi [1]; orally 5 mg/kg/d): complete eradication of Trypanosoma cruzi from the infected organism | activity compared with benznidazole (50 mg/kg/d), acute phase (Trypanosoma cruzi [1]; orally 5 mg/kg/d, from the 39th day after infestation, 15 days after the end of treatment): activity that is much greater than the benznidazole | 1st serology (anti-T. cruzi ELISA, optical density) (Trypanosoma cruzi [2]; 5 mg SC): 0.2151 ± 0.1447 | 1st serology (anti-T. cruzi ELISA, optical density) (Trypanosoma cruzi [2]; 5 mg oral): 0.1105 ± 0.0387 | 2nd serology (anti-T. cruzi ELISA, optical density) (Trypanosoma cruzi [2]; 5 mg SC): 0.1347 ± 0.6327 | 2nd serology (anti-T. cruzi ELISA, optical density) (Trypanosoma cruzi [2]; 5 mg oral): 0.3953 ± 0.7531 | Negative parasitemia/number of surviving mice (Trypanosoma cruzi [3]; 0 days post-treatment, 5 mg/kg orally for 20 days): 7/8 | Negative parasitemia/number of surviving mice (Trypanosoma cruzi [3]; 0 days post-treatment, 5 mg/kg/d subcutaneously for 20 days): 6/8 | Negative parasitemia/number of surviving mice (Trypanosoma cruzi [3]; 10 d post-treatment, 5 mg/kg orally for 20 days): 7/8 | Negative parasitemia/number of surviving mice (Trypanosoma cruzi [3]; 10 d post-treatment, 5 mg/kg/d subcutaneously for 20 days): 7/8 | Negative parasitemia/number of surviving mice (Trypanosoma cruzi [3]; 40 d post-treatment, 5 mg/kg orally for 20 days): 8/8 | Negative parasitemia/number of surviving mice (Trypanosoma cruzi [3]; 40 d post-treatment, 5 mg/kg/d subcutaneously for 20 days): 6/8 | Negative parasitemia/number of surviving mice (Trypanosoma cruzi [3]; 60 d post-treatment, 5 mg/kg orally for 20 days): 8/8 | Negative parasitemia/number of surviving mice (Trypanosoma cruzi [3]; 60 d post-treatment, 5 mg/kg/d subcutaneously for 20 days): 6/8 | eradication of Trypanosoma cruzi from the infected organism, chronic phase (Trypanosoma cruzi [3]; orally 5 mg/kg/d for 20 days): complete eradication of Trypanosoma cruzi from the infected organism | protection of the mice against death, chronic phase (Trypanosoma cruzi [3]; orally 5 mg/kg/d for 20 days): protects the mice against death | activity compared with benznidazole (50 mg/kg/d), chronic phase (Trypanosoma cruzi [3]; orally 5 mg/kg/d for 20 days from the 108th day after parasitic infection, 79 days after the end of the treatment): greater activity than benznidazole | ELISA (optical density ± standard deviation) (Trypanosoma cruzi [4]; 10 d post-treatment, 5 mg/kg orally): 1.621 ± 0.547 | ELISA (optical density ± standard deviation) (Trypanosoma cruzi [4]; 10 d post-treatment, 5 mg/kg/d subcutaneously): 1.850 ± 0.405 | ELISA (optical density ± standard deviation) (Trypanosoma cruzi [4]; 43 days before treatment (baseline), 5 mg/kg orally): 1.878 ± 0.348 | ELISA (optical density ± standard deviation) (Trypanosoma cruzi [4]; 43 days before treatment (baseline), 5 mg/kg/d subcutaneously): 1.916 ± 0.368 | ELISA (optical density ± standard deviation) (Trypanosoma cruzi [4]; 75 d post-treatment, 5 mg/kg orally): 1.799 ± 0.333 | ELISA (optical density ± standard deviation) (Trypanosoma cruzi [4]; 75 d post-treatment, 5 mg/kg/d subcutaneously): 1.870 ± 0.268
